Consider 3 molecules from US20260234160A1, “NEW SUBSTITUTED QUINOLINE COMPOUNDS FOR COMBATITNG PHYTOPATHOGENIC FUNGI” (BASF SE, priority 2023, published 2026).

The subject of assay [1] is Sclerotinia sclerotiorum. The experiment in a line: Preventative fungicidal control of white mold on oilseed rape caused by Sclerotinia sclerotiorum (green house). The class given is in vivo. The settings on record: 100 ppm, assessed after 14 days, untreated 100%. On the procedure: The compound was dissolved in a mixture of acetone and/or dimethylsulfoxide and the wetting agent/emulsifier Wettol, which is based on ethoxylated alkylphenoles, in a ratio (volume) solvent-emulsifier of 99 to 1 to give a total volume of 5 ml. Subsequently, water was added to total volume of 100 ml.
This stock solution was then diluted with the described solvent-emulsifier-water mixture to the final concentration given in the table below.
Oilseed rapes were grown in pots to the 13 to 14 leaf stage. These plants were sprayed to runoff with previously described spray solution, containing the concentration of active ingredient or their mixture mentioned in the table below.
The plants could air-dry. The next day the applicated rape petals were fixed with 25 μl of 2.5% methylcellulose on leaf 1 and 2. 25 μl of a spore suspension of Sclerotinia sclerotiorum was pipetted on each fixed rape petal. After 14 days at 20° C. and a relative humidity of 60% the extent of fungal attack on the leaves was visually assessed as % diseased leaf area.

For assay [2], the system named is Botrytis cinerea. The assay is described as follows: Activity against the grey mold Botrytis cinerea in the microtiterplate test. Format: cell-based. The following applies: 31 ppm, MTP, 405 nm, 7 days after inoculation. As to the method: The active compounds were formulated separately as a stock solution having a concentration of 10000 ppm in dimethyl sulfoxide.
The stock solutions were mixed according to the ratio, pipetted onto a micro titer plate (MTP) and diluted with water to the stated concentrations. A spore suspension of Botrytis cinerea in an aqueous biomalt or yeast-bactopeptone-sodium acetate solution was then added. The plates were placed in a water vapor-saturated chamber at a temperature of 18° C. Using an absorption photometer, the MTPs were measured at 405 nm 7 days after the inoculation.

Assay [3] concerns Corynespora cassiicola. The experiment in a line: Activity against Corynespora cassiicola in the microtiterplate test. The following applies: 31 ppm, MTP. The class given is cell-based. On the procedure: The active compounds were formulated separately as a stock solution having a concentration of 10000 ppm in dimethyl sulfoxide. The stock solutions were mixed according to the ratio, pipetted onto a micro titer plate (MTP) and diluted with water to the stated concentrations. A spore suspension of the Corynespora cassiicola in an aqueous biomalt or yeast-bactopeptone-sodium acetate solution was then added.

With `C[C@@H]1N=C(c2cnc3c(F)cccc3c2)c2ccccc2OC1(C)C` [Ex-1, (S)-5-(8-fluoroquinolin-3-yl)-2,2,3-trimethyl-2,3-dihydrobenzo[f][1,4]oxazepane], the “growth of the pathogen (% diseased leaf area)” value in assay [1] was “less than 1%”. The “growth of the pathogen” value in assay [2] is recorded as 0%.
On to `C[C@@H]1N=C(c2cnc3ccccc3c2)c2cccc(F)c2OC1(C)C` [Ex-4, (3S)-9-fluoro-2,2,3-trimethyl-5-(3-quinolyl)-3H-1,4-benzoxazepine], for which the “growth of the pathogen” value in assay [2] was found to be 0%; in assay [3], 1%.
As for `C[C@@H]1N=C(c2cnc3c(F)cccc3c2)c2cccc(F)c2OC1(C)C` [Ex-3, (3S)-9-fluoro-5-(8-fluoro-3-quinolyl)-2,2,3-trimethyl-3H-1,4-benzoxazepine], in assay [2], the “growth of the pathogen” value came out at 0%.
